Columns and labels:
Format in all cases: in vivo
Tetranychus urticae = Tetranychus urticae spray test, OP-resistant; conditions: 100 g/ha
Description: Tetranychus urticae—Spray Test, OP-Resistant Solvent: 78.0 parts by weight of acetone • • 1.5 parts by weight of dimethylformamide Emulsifier: alkylaryl polyglycol ether
(§1) To produce a suitable active compound formulation, 1 part by weight of active compound is dissolved using the stated parts by weight of solvent and made up with water containing an emulsifier concentration of 1000 ppm until the desired concentration is attained. To produce further test concentrations, the formulation is diluted with emulsifier-containing water.
Discs of bean leaves (Phaseolus vulgaris) infested with all stages of the greenhouse red spider mite (Tetranychus urticae) are sprayed with an active compound formulation of the desired concentration.
After 6 days, the efficacy in % is determined. 100% means that all the spider mites have been killed; 0% means that no spider mites have been killed.

Diabrotica balteata = Diabrotica balteata spray test; conditions: 168 h, beetle larvae on wheat, after 7 days, read-out: efficacy (wheat plant growth); for pest or weed control at 100 g/ha: 100 g/ha (=32 μg/cavity); for pest or weed control at 500 g/ha: 500 g/ha (=160 μg/cavity)
Summary of the method: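 Germinated wheat seedlings in agar multiwell plates were sprayed with compound in acetone/DMF with emulsifier-containing water, then infested with 10-20 Diabrotica balteata larvae. After 7 days, efficacy (%) scored by plant growth: 100% equals untreated, uninfested control, 0% no plants grown.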

Spodoptera frugiperda = Spodoptera frugiperda spray test; conditions: foliar, 168 h, maize leaf discs, after 7 days, read-out: efficacy (caterpillars killed)
Summary of the method: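 Compound was dissolved in acetone/dimethylformamide and diluted with water containing 1000 ppm alkylaryl polyglycol ether emulsifier to test concentrations. Maize leaf discs were sprayed, dried and infested with fall armyworm caterpillars. Efficacy (% caterpillars killed) was scored after 7 days.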

Phaedon cochleariae = Phaedon cochleariae spray test; conditions: foliar, 168 h, Chinese cabbage leaf discs, after 7 days, read-out: efficacy (beetle larvae killed)
Description: Phaedon cochleariae—Spray Test Solvent: 78.0 parts by weight of acetone • • 1.5 parts by weight of dimethylformamide Emulsifier: alkylaryl polyglycol ether
as §1
Discs of Chinese cabbage leaves (Brassica pekinensis) are sprayed with an active compound formulation of the desired concentration and, after drying, populated with larvae of the mustard beetle (Phaedon cochleariae).
After 7 days, the efficacy in % is determined. 100% means that all the beetle larvae have been killed; 0% means that no beetle larvae have been killed.

Musca domestica = Musca domestica test; conditions: 100 ppm, adult houseflies, after 2 days
Description: (§2) Solvent: Dimethyl Sulfoxide
To produce a suitable active compound formulation, 10 mg of active compound are mixed with 0.5 ml of dimethyl sulfoxide, and the concentrate is diluted with water to the desired concentration.
Vessels containing a sponge treated with sugar solution and the desired concentration of active compound formulation are populated with 10 adult houseflies (Musca domestica).
After 2 days, the kill in % is determined. 100% means that all of the flies have been killed; 0% means that none of the flies have been killed.

Ctenocephalides felis [1] = test: Ctenocephalides felis oral test; conditions: 48 h, 100 ppm in citrated cattle blood, adult cat fleas, after 2 days, read-out: efficacy (kill)
Description: Ctenocephalides felis—Oral Test
as §2
To produce a suitable active compound formulation, 10 mg of active compound are mixed with 0.5 ml of dimethyl sulfoxide. Dilution with citrated cattle blood gives the desired concentration.
About 20 unfed adult cat fleas (Ctenocephalides felis) are placed into a chamber which is closed at the top and bottom with gauze. A metal cylinder whose bottom end is closed with parafilm is placed onto the chamber. The cylinder contains the blood/active compound formulation, which can be imbibed by the fleas through the parafilm membrane.
After 2 days, the kill in % is determined. 100% means that all of the fleas have been killed; 0% means that none of the fleas have been killed.

Myzus persicae = Myzus persicae oral test; conditions: 4 ppm, after 5 days
Description: Myzus persicae—Oral Test Solvent: 100 parts by weight of acetone
To produce a suitable active compound formulation, 1 part by weight of active compound is dissolved using the specified parts by weight of solvent and made up with water until the desired concentration is attained.
50 μl of the active compound formulation are transferred into microtitre plates and made up to a final volume of 200 μl with 150 μl of IPL41 insect medium (33%+15% sugar). Subsequently, the plates are sealed with parafilm, which a mixed population of green peach aphids (Myzus persicae) within a second microtitre plate is able to puncture and imbibe the solution through.
After 5 days, the efficacy in % is determined. 100% means that all the aphids have been killed; 0% means that no aphids have been killed.

Ctenocephalides felis [2] = test: Ctenocephalides felis in vitro contact test with adult cat fleas; conditions: 5 μg/cm^2 (=500 g of ai/ha), after 48 h, read-out: efficacy (fleas dead or moribund)
Description: Ctenocephalides felis—In Vitro Contact Tests with Adult Cat Fleas
For the coating of the test tubes, 9 mg of active compound are first dissolved in 1 ml of acetone p.a. and then diluted to the desired concentration with acetone p.a. 250 μl of the solution are distributed homogeneously on the inner walls and the base of a 25 ml glass tube by turning and rocking on an orbital shaker (rocking rotation at 30 rpm for 2 h). With 900 ppm of active compound solution and internal surface area 44.7 cm^2, given homogeneous distribution, an area-based dose of 5 μg/cm^2 is achieved.
After the solvent has evaporated off, the tubes are populated with 5-10 adult cat fleas (Ctenocephalides felis), sealed with a perforated plastic lid and incubated in a horizontal position at room temperature and ambient humidity. After 48 h, efficacy is determined. To this end, the tubes are stood upright and the fleas are knocked to the base of the tube. Fleas which remain motionless at the base or move in an uncoordinated manner are considered to be dead or moribund.
100% efficacy means that all the fleas were dead or moribund. 0% efficacy means that no fleas were harmed.

Nezara viridula = Nezara viridula spray test; conditions: 500 g/ha, larvae on barley plants, after 4 days
Description: Nezara viridula—Spray Test Solvent: 78.0 parts by weight of acetone • • 1.5 parts by weight of dimethylformamide Emulsifier: alkylaryl polyglycol ether
as §1
Barley plants (Hordeum vulgare) are sprayed with an active compound formulation of the desired concentration and are infected with larvae of the Southern green shield bug (Nezara viridula).
After 4 days, the efficacy in % is determined. 100% means that all of the shield bugs have been killed; 0% means that none of the shield bugs have been killed.

SMILES | efficacy (spider mites killed) (Tetranychus urticae; bean leaf discs, all stages, after 6 days) | pest or weed control at 100 g/ha (Diabrotica balteata) | pest or weed control at 500 g/ha (Diabrotica balteata) | pest or weed control at 100 g/ha (Spodoptera frugiperda) | pest or weed control at 100 g/ha (Phaedon cochleariae; 100 g/ha) | pest or weed control at 500 g/ha (Phaedon cochleariae) | efficacy (spider mites killed) (Tetranychus urticae; foliar, 144 h) | efficacy (kill) (Musca domestica) | pest or weed control at 500 g/ha (Spodoptera frugiperda) | pest or weed control at 100 ppm (Ctenocephalides felis [1]) | efficacy (aphids killed) (Myzus persicae) | pest or weed control at 5 µg/cm2 (Ctenocephalides felis [2]) | pest or weed control at 125 g/ha (Diabrotica balteata; 125 g/ha (=40 μg/cavity)) | efficacy (shield bugs killed) (Nezara viridula)
CCOCCNc1nc(-c2ccc(C=NNC(=S)Nc3ccccc3C(C)C)cc2)nn1-c1ccc(OC(F)(F)F)cc1 [Compound I-060] | 90% | 100% | 100% | 100% |  |  |  |  |  |  |  |  |  | 
CCO[C@@H]1[C@@H](OC)[C@H](C)O[C@@H](OC(=O)Nc2ccc(-c3nc(NC(C)=O)n(-c4ccc(OC(F)(F)C(F)(F)F)cc4)n3)cc2)[C@@H]1OC [Compound I-006] |  |  |  | 100% | 100% | 100% | 100% | 80% | 100% | 95% |  |  |  | 
CC(C)c1ccccc1NC(=S)NN=Cc1ccc(-c2nc(NC3CSC3)n(-c3ccc(OC(F)(F)F)cc3)n2)cc1 [Compound I-057] |  | 100% | 100% | 100% |  |  |  |  |  |  | 90% |  |  | 
CNc1nc(-c2ccc(C=NNC(=S)Nc3ccccc3C(C)C)cc2)nn1-c1ccc(OC(F)(F)F)cc1 [Compound I-018, 1-(2-isopropylphenyl)-3-[[4-[5-(methylamino)-1-[4-(trifluoromethoxy)phenyl]-1,2,4-triazol-3-yl]phenyl]methyleneamino]thiourea] |  |  | 100% | 100% |  |  |  |  |  | 95% | 90% | 80% | 100% | 100%
CCO[C@@H]1[C@@H](OC)[C@H](C)O[C@@H](OC(=O)Nc2ccc(-c3nc(NC(C)=O)n(-c4ccc(OC(F)(F)F)cc4)n3)cc2)[C@@H]1OC [Compound I-001, [(2S,3R,4R,5S,6S)-4-ethoxy-3,5-dimethoxy-6-methyl-tetrahydropyran-2-yl]N-[4-[5-acetamido-1-[4-(trifluoromethoxy)phenyl]-1,2,4-triazol-3-yl]phenyl]carbamate] |  |  |  | 100% |  | 100% | 90% |  | 100% |  |  |  |  | 
